Test results: patent EP1356819A1, “Use of proteasome/ubiquitination inhibitors and/or MMP inhibitors alone or in combination with a growth hormone for treating /preventing catabolic conditions” (Universitair Medisch Centrum Utrecht, priority 2002, dated 2003)
Read-outs that look alike come from different tables or passages of the source. Where a SMILES comes first, the peptide text is derived from it. The star is where a group is joined. Cbz = O=C(OCc1ccccc1)*

Key:
[1] = test system: GH binding protein (GHBP); assay: Release of GH binding protein into the growth medium, Western blotting with Mab5 antibody; format: cell-based, rabbit; conditions: 1 µM; growth medium after 150 min at 30°C (Fig. 3)
Procedure: Cell lines and plasmids. Chinese hamster lung cells, ts20, bearing a thermolabile ubiquitin-activating enzyme E1, and E36 control cells were stably transfected with a pCB6 construct containing the full length rabbit GHR cDNA sequence. The newly established cell lines were grown at 30°C in MEMα supplemented with 10% FCS, 4.5 g/l glucose, 100 U/ml penicillin, 100 µg/ml streptomycin and 0.45 mg/ml geneticin (van Kerkhof et al., 2002). Sixteen hours before the start of the experiment, 10 mM butyrate was added to increase the expression of the GHR (van Kerkhof et al., 2002).
Cell lysis, immunoprecipitation, and western blotting. […] Cell lysates were subjected to SDS-polyacrylamide gel electrophoresis using a precast ready gel system (BioRad, Veenendaal, The Netherlands) and transferred to polyvinylidenedifluoride (PVDF) paper. The blots were immunostained using the polyclonal GHR antibodies anti-T or anti-B or the monoclonal antibody mAb5 followed by peroxidase conjugated protein A or rabbit anti-mouse IgG (Pierce Chemical Co.) as described previously (van Kerkhof et al. 2002), and detected by enhanced chemiluminescence (Roche Molecular Biochemicals).
• Fig. 1. […] Quantification of receptors at the cell surface. […] The number GHRs were calculated and expressed as a percentage of untreated cells. • Fig. 3. […]

GHR = assay: Western blotting of GHR species (mature and precursor) in cell lysates after drug treatment; format: cell-based, rabbit
Procedure: Cell lines and plasmids. Chinese hamster lung cells, ts20, bearing a thermolabile ubiquitin-activating enzyme E1, and E36 control cells were stably transfected with a pCB6 construct containing the full length rabbit GHR cDNA sequence.
Antibodies and materials. […] Inhibitors were dissolved in dimethylsulfoxide (DMSO).
Cell lysis, immunoprecipitation, and western blotting. Cells (in 6-cm dishes) were lysed on ice in 1.0 mL of lysis buffer containing 1% Triton X-100, 1 mM EDTA in PBS, with 50 mM NaF, 1 mM Na3VO4, 10 µg/ml aprotinin, 10 µg/ml leupeptin, and 1 mM PMSF. Cell lysates were subjected to SDS-polyacrylamide gel electrophoresis using a precast ready gel system (BioRad, Veenendaal, The Netherlands) and transferred to polyvinylidenedifluoride (PVDF) paper.
• Fig. 1. Effect of various drugs on GHR species. Cells were treated for 3 h as follows: lane 1, vehicle; lane 2, MG132 (10 µM); lane 3, Tapi-I (10 µM); lane 4, MG132 (10 µM) and Tapi-I (10 µM); lane 5, cycloheximide (0.1 mM); m, mature; p, precursor GHR. […] Quantification of receptors at the cell surface. […] The number GHRs were calculated and expressed as a percentage of untreated cells. • Fig. 3. Effect of metalloprotease inhibitors on the release of GH binding protein.

[2] = Chinese hamster lung cells transfected with rabbit GHR, treated for 3 h, MG132 10 µM, Tapi-I 10 µM, cycloheximide 0.1 mM, compared with vehicle control (Fig. 1)

Structure (SMILES)	inhibition of shedding of GHBP [1]	amount of precursor GHR (GHR; [2])	steady state amount of mature GHR (GHR; [2])	amount of precursor GHR (GHR)	steady state amount of mature GHR (GHR)
CNC(=O)[C@H](Cc1c[nH]c2ccccc12)NC(=O)[C@@H](CC(=O)NO)CC(C)C [GM6001]	almost completely inhibited				
CC(C)C[C@@H](C=O)NC(=O)[C@H](CC(C)C)NC(=O)[C@H](CC(C)C)NC(=O)OCc1ccccc1 [MG132, carbobenzoxy-L-leucyl-L-leucyl-L-leucinal] (Cbz-Leu-Leu-Leu-aldehyde)		remained constant	decreased		
CC(C)C[C@H](CC(=O)NO)C(=O)N[C@@H](Cc1ccc2ccccc2c1)C(=O)N[C@@H](C)C(=O)NCCN [Tapi-I]	almost completely inhibited	unchanged	slight increase		
C[C@@H]1C[C@@H]([C@H](O)CC2CC(=O)NC(=O)C2)C(=O)[C@@H](C)C1 [cycloheximide]				virtually disappeared	virtually disappeared
